In patent US9675592B2, “Methods and compositions for bacteria infections” (priority 2013, dated 2017):
Read-outs that look alike come from different tables or passages of the source.

What was measured:
[1] = system: test strain 923 pPvra-lux (USA300 MRSA); experiment: Primary screen, relative growth in presence of oxacillin; settings: compound 10 μM with oxacillin 2 μg/mL, absorbance 24 h, <0.50 = dead cells = hit
[2] = system: test strain 923 pPvra-lux; experiment: Secondary screen / synergy confirmation of Top 40, relative growth with oxacillin; assay type: cell-based, Staphylococcus aureus; settings: Top 40 library, compound at maximum non-GI conc
Description: In the secondary screen each microtiter plate contained either cells in TSB alone (16 replicates), cells with oxacillin (2 μg/mL, 31 replicates), or cells with test compound and oxacillin (2 μg/mL, 49 wells). Each compound was assayed in four separate biological replicates.
Synergy Confirmation of “Top 40”. […]

[3] = system: vraSR promoter (Pvra-lux reporter in strain 923); assay type: cell-based, Staphylococcus aureus; settings: for RL Ox avg: Top 40 library, with oxacillin, compound at maximum non-GI conc; for vraSR repressing synergist: overall class from syn and rep
Description: In the secondary screen each microtiter plate contained either cells in TSB alone (16 replicates), cells with oxacillin (2 μg/mL, 31 replicates), or cells with test compound and oxacillin (2 μg/mL, 49 wells). Each compound was assayed in four separate biological replicates. […]

[4] = system: vraSR promoter (Pvra-lux reporter in strain 923); experiment: Primary screen, relative luminescence (vraSR expression)
[5] = system: test strain (923 pPvra-lux); experiment: Growth inhibition by compound alone (maximum non-growth-inhibitory concentration); assay type: cell-based, Staphylococcus aureus; settings: for maximum non-GI conc: compound alone, maximum concentration where it did NOT inhibit growth
[6] = primary screen, compound 10 μM with oxacillin 2 μg/mL, <0.50 = vraSR repressed = hit

| SMILES | RG avg (relative growth) [1] | RG Ox avg [2] | RL Ox avg [3] | vraSR repressing synergist [3] | RL avg (relative luminescence) [4, 6] | maximum non-GI conc [5] | concentration ([5]; compound tested alone, concentration where it did NOT inhibit growth (subinhibitory), Top 40 leads after secondary screen) | RL avg (relative luminescence) [4] |
| --- | --- | --- | --- | --- | --- | --- | --- | --- |
| CN(C)CCCNc1cc(C(C)(C)C)nc2c(-c3ccc(Cl)cc3)cnn12 [F3348-0373] | 0.05 | 0.99 | 0.80 | 3. no effect | 0.41 | 40 µg/mL | – | – |
| Cn1cccc1C(CNC(=O)Nc1ccc(Cl)c(Cl)c1)N1CCOCC1 (stereo not shown) [F5833-1551] | 0.01 | 0.99 | 0.56 | 3. no effect | −0.03 | 40 µg/mL | – | – |
| O=C(Nc1cccc(C(F)(F)F)c1)N1CCN(c2ccc3nncn3n2)CC1 [F5123-0084] | 0.02 | 1.08 | 0.67 | 3. no effect | −0.08 | 40 µg/mL | – | – |
| COc1ccc(Cl)c2sc(NC(=O)c3ccccc3NS(=O)(=O)c3ccc(F)cc3)nc12 [F2708-0138] | 0.02 | 1.04 | 0.69 | 3. no effect | −0.07 | 40 µg/mL | 4 µg/mL | – |
| CN1CCN(c2nc(Nc3ccc(SC(F)F)cc3)c3cnn(-c4ccccc4)c3n2)CC1 [F2090-0579] | 0.00 | 0.30 | 0.11 | 1. confirmed | 0.04 | 400 µg/mL | – | – |
| O=C(Nc1nnc(C2=COCCO2)o1)c1cccc(Br)c1 [F0608-0146] | −0.05 | 0.96 | 1.11 | 3. no effect | −0.12 | 40 µg/mL | – | – |
| Clc1ccc(-c2csc3ncnc(Sc4nnnn4-c4ccccc4)c23)cc1 [F1142-4597] | 0.03 | 0.08 | −0.01 | 1. confirmed | 0.37 | 40 µg/mL | – | – |
| O=C(Nc1ccc2c(c1)OCO2)Nc1nc(-c2ccccn2)cs1 [F5772-8284] | 0.37 | 0.37 | 0.52 | 2. possible | −0.01 | 400 µg/mL | – | – |
| Cc1nnsc1C(=O)Nc1nc(-c2cc3ccccc3o2)cs1 [F2962-0176] | 0.06 | 0.04 | 0.01 | 1. confirmed | −0.08 | 400 µg/mL | – | – |
| CC(=O)Nc1ccc(Nc2cc(C(C)C)nc3c(-c4ccccc4)cnn23)cc1 [F3348-0533] | 0.02 | 0.02 | 0.10 | 1. confirmed | 0.01 | 400 µg/mL | – | – |
| O=C(Nc1nc(-c2ccccn2)cs1)c1ccc(Br)s1 [F0447-0273] | −0.08 | 0.39 | 0.08 | 1. confirmed | −0.09 | 40 µg/mL | – | – |
| O=C(CCCSc1ccc(Cl)cc1)Nc1nc(-c2ccccn2)cs1 [F2813-0883] | −0.03 | 1.03 | 1.28 | 3. no effect | −0.01 | 40 µg/mL | – | – |
| CSc1cccc2sc(NC(=O)c3ccccc3NS(=O)(=O)c3ccc(C)cc3)nc12 [F2730-0247] | 0.31 | 0.23 | 0.15 | 1. confirmed | 0.16 | 400 µg/mL | – | – |
| O=C(Nc1ccc(OC(F)(F)F)cc1)N1CCN(c2cc(N3CCCC3)ncn2)CC1 [F5669-0378] | −0.02 | 1.00 | 0.71 | 3. no effect | −0.06 | 40 µg/mL | – | – |
| Cc1ccc(C)c2sc(NC(=O)c3cccs3)nc12 [F0600-1305] | 0.36 | 0.94 | 0.15 | 3. no effect | 0.22 | 400 µg/mL | – | – |
| O=C(Nc1ccc(Cl)c(Cl)c1)N(Cc1ccsc1)Cc1ccco1 [F5854-2599] | 0.01 | 1.01 | 0.54 | 3. no effect | −0.06 | 40 µg/mL | – | – |
| O=C(Nc1cccc(C(F)(F)F)c1)N1CCN(c2ccc(Nc3cccnc3)nn2)CC1 [F5237-0056] | 0.02 | 1.10 | 0.72 | 3. no effect | −0.05 | 40 µg/mL | – | – |
| Cc1ccc(-c2nnc(NC(=O)c3ccc(S(=O)(=O)N4CCc5ccccc5C4)cc3)o2)c(C)c1 [F2518-0213] | 0.01 | 1.14 | 0.33 | 3. no effect | −0.01 | 4 µg/mL | – | – |
| CC1CC1c1ccc(CCC(=O)Nc2ccc(Cl)c(Cl)c2)o1 (stereo not shown) [F1118-0378] | 0.01 | 1.00 | 0.65 | 3. no effect | 0.42 | 40 µg/mL | – | – |
| O=C(Nc1ccccc1-c1nc2ccccc2[nH]1)c1ccccc1Br [F0015-0758] | −0.06 | 0.92 | 0.25 | 3. no effect | 0.33 | 400 µg/mL | – | – |
| Cc1ccc(S(=O)(=O)Nc2ccccc2C(=O)Nc2nc3c(C)ccc(Cl)c3s2)cc1 [F1813-0711] | −0.02 | 0.85 | 0.43 | 2. possible | – | 400 µg/mL | – | −0.02 |
| O=C(Nc1nnc(-c2ccc(OC(F)(F)F)cc2)o1)C1(c2cccs2)CCCC1 [F2517-0863] | 0.02 | 0.92 | 1.18 | 3. no effect | −0.06 | 4 µg/mL | – | – |
| COc1cccc2cc(-c3nnc(NC(=O)c4ccc(S(=O)(=O)N(C)C)cc4)o3)oc12 [F2273-29] | 0.16 | – | – | – | 0.29 | – | – | – |
| O=C(Nc1nnc(-c2ccccc2Cl)o1)c1ccc(Cl)s1 [F1374-36] | 0.04 | – | – | – | 0.35 | – | – | – |
| O=C(COc1ccc(Cl)cc1)Nc1nnc(-c2ccc(Br)cc2)o1 [F2518-483] | −0.02 | – | – | – | −0.04 | – | – | – |
